Experimental data published in patent US20040024033A1 (priority 1998, published 2004).

Key:
[1] = test system: human HCT-15 colon carcinoma; format: in vivo, female BALB/c nude mice; details: 4 mg/kg, i.v. once on day 14
Experimental: Female or male BALB/c nu/nu (nude) mice are kept under sterile conditions (10 to 12 mice per Type III cage) with free access to food and water. Mice weigh between 20 and 25 grams at the time of tumor implantation. Tumors are established by subcutaneous injection of cells (minimum 2×10^6 cells in 100 μl PBS or medium) in carrier mice (4-8 mice per cell line). The resulting tumors are serially passaged for a minimum of three consecutive transplantations prior to start of treatment. Tumor fragments (approx. 25 mg) are implanted s.c. into the left flank of animals with a 13-gauge trocar needle while the mice are exposed to Forene (Abbott, Switzerland) anesthesia.
Tumor growth and body weights are monitored once or twice weekly. All treatments are administered intravenously (i.v.) and are initiated when a mean tumor volume of approximately 100 to 250 mm^3 is attained, depending upon the tumor type. Tumor volumes are determined using the formula […] (see Cancer Chemother. Pharmacol. 24:148-154, [1989]). Treatments with epothilone B vary the dose and the frequency of administration. Comparator agents are administered according to previously determined optimal treatment regimens. In addition to presenting changes in tumor volumes over the course of treatment, antitumor activity is expressed as T/C% (mean increase of tumor volumes of treated animals divided by the mean increase of tumor volumes of control animals multiplied by 100). Tumor regression (%) represents the smallest mean tumor volume compared to the mean tumor volume at the start of treatment, according to the formula Regression (%)=(1−Vend/Vstart)×100 (Vend=final mean tumor volume, Vstart=mean tumor volume at the start of treatment. Any animals in which the tumor has reached a size exceeding approximately 1.5 to 2.5 cm^3 are sacrificed. Details can be found below.
Tumor fragments of approximately 25 mg are implanted into the left flank of each female nude mouse (n=8 per group). Treatments are started on day 14 after tumor transplantation. Epothilone B is administered once at 4 mg/kg, i.v. on day 14.5-Fluorouracil is administered at 75 mg/kg, i.v., on days 14 and 21. TAXOL® is administered i.v. at 20 mg/kg/day, every second day for 5 treatments (days 14, 16, 18, 20 and 22). Antitumor activity is expressed as T/C% (mean increase of tumor volumes of treated animals divided by the mean increase of tumor volumes of control animals multiplied by 100). Tumor regression (%) represents the final mean tumor volume compares to the mean tumor volume at the start of treatment. Δ Tumor volumes represent the tumor volume on the last treatment day minus the tumor volume on the first treatment day. Statistical analyses on Δ tumor volumes uses Dunnett's test to compare treatment groups to controls. Statistical analyses on body weight changes uses paired t-tests comparing body weights before treatment to those at the end of treatment; mice weigh ˜20-25 g at the start of treatment. Not significant is indicated by the abbreviation ,ns”. Data presented are means±SEM from animals surviving to the end of the experiment.

[2] = Determination of the single i.v. dose MTD in normal mice; format: in vivo, normal female BALB/c mice; details: for Body Weight Δ: mean ± SD
Experimental: For the MTD determination, female BALB/c nude mice or BALB/c mice (obtained from Novartis Animal Farm, Sisseln, Switzerland) are treated once intravenously with epothilone B (n=3 per dose group). The dosage is increased (2, 4, 6, 8, 10 and 12 mg/kg) and the mice are observed for the presentation of overt toxic effects for 10 days after drug treatment.
Epothilone B is given as a single i.v. bolus dose at 2, 4, 6, 8, 10 or 12 mg/kg. Survival and body weights of the mice are monitored daily. Changes (Δ) in body weights are determined comparing the last measured body weight to that before treatment.

[3] = Two-week intravenous comparative toxicity study in mice; format: in vivo, normal female BALB/c mice
Experimental: In order to assess the sub-chronic intravenous toxicity of epothilone B, a non-GLP two-week i.v. toxicity study in non-tumor bearing, normal female BALB/c mice is conducted, involving analysis of mortality, clinical signs, body weight, food consumption, hematology, clinical biochemistry, urinalysis, and organ weights as well as macro and microscopic examinations. The study is based on two different dosing regimens of epothilone B of 3 mg/kg and 10 mg/kg, respectively, administered on days 1 and 8 (8 animals per group). Half of the animals are killed on day 15 (main group) and necropsy is performed. For the other half (recovery group) a recovery period of 5 weeks is allowed after administration of the second dose before sacrifice and subsequent necropsy on day 43.

[4] = GLP toxicology study in dogs; format: in vivo; details: dog
Experimental: The starting dose level is 0.3 mg/m^2. This dose is calculated as one-third of the toxic dose low (TDL) in the most sensitive species studied which, for epothilone B, is the dog. […] Using a factor of 20 to convert mg/kg in the dog to mg/m^2 in humans, this starting dose is calculated as: […]

[5] = Experiment 1, 6 mg/kg single i.v. bolus
[6] = Experiment 1, 8 mg/kg single i.v. bolus
[7] = Experiment 1, 10 mg/kg single i.v. bolus
[8] = Experiment 1, 12 mg/kg single i.v. bolus
[9] = Experiment 2, 2 mg/kg single i.v. bolus
[10] = Experiment 2, 4 mg/kg single i.v. bolus
[11] = Experiment 2, 6 mg/kg single i.v. bolus
[12] = Experiment 2, 8 mg/kg single i.v. bolus
[13] = 3 mg/kg i.v. on days 1 and 8, day 15
[14] = 10 mg/kg i.v. on days 1 and 8, day 15

## C/C(=C\c1csc(C)n1)[C@@H]1C[C@@H]2O[C@]2(C)CCC[C@H](C)[C@H](O)[C@@H](C)C(=O)C(C)(C)[C@@H](O)CC(=O)O1 [epothilone B]
[1]
  % Body Weight Change: 2 ± 2%
  Mortalities due to treatment: No mortalities
  T/C: Regres-
[1]; mean ± SEM
  D Body Weight: 0.4 ± 0.3 g
[2]; [5]
  Mortalities: 1/3
  Body Weight Δ: -6.1 ± 0.9 g
[2]; [6]
  Mortalities: 3/3
  Body Weight Δ: -5.1 ± 3.2 g
[2]; [7]
  Mortalities: 3/3
  Body Weight Δ: -5.6 ± 0.6 g
[2]; [8]
  Mortalities: 3/3
  Body Weight Δ: -5.4 ± 2.9 g
[2]; [9]
  Mortalities: 0/3
  Body Weight Δ: 2.3 ± 0.6 g
[2]; [10]
  Mortalities: 0/3
  Body Weight Δ: 1.3 ± 0.6 g
[2]; [11]
  Mortalities: 2/3
  Body Weight Δ: -5.3 ± 0.6 g
[2]; [12]
  Mortalities: 3/3
  Body Weight Δ: -5.0 ± 1.0 g
[3]; 3 mg/kg i.v. on days 1 and 8
  Mortalities throughout the treatment period (days 1-14): No mortalities
[3]; [13]
  Atrophy of the thymus (microscopic): moderate
  Hematology: leukocytes: reduction in the number of leukocytes
  Sternal bone marrow, microscopic: minimal to slight erythroid and myeloid atrophy
[3]; 3 mg/kg i.v. on days 1 and 8, to day 43
  Survival of the recovery group: all animals of the recovery group survive until the end of the study
[3]; 3 mg/kg i.v. on days 1 and 8, treatment period
  Body weight: body weight loss at the 3 mg/kg dose is only apparent in the second week
[3]; 10 mg/kg i.v. on days 1 and 8
  Mortalities throughout the treatment period (days 1-14): No mortalities
[3]; [14]
  Atrophy of the thymus (microscopic): marked
  Spleen, microscopic: minimal lymphoid atrophy
  Sternal bone marrow, microscopic: minimal to slight myeloid hypoplasia
[3]; 10 mg/kg i.v. on days 1 and 8, day 15, effect more pronounced
  Hematology: leukocytes: reduction in the number of leukocytes
[3]; 10 mg/kg i.v. on days 1 and 8, first and second week
  Body weight: Body weight loss is observed for all animals
[3]; both dose levels (3 and 10 mg/kg), day 15
  Intestinal mucosa (small and large intestine), microscopic: Minimal single cell necrosis
[4]; most sensitive species, estimated
  toxic dose low (TDL): ~0.5 mg/kg
[4]; 0.1 mg/kg, repeated once 3 weeks later (lower of the 2 doses)
  Mortalities: no mortalities
